Measurements from patent US10669242B2 (priority 2016, dated 2020).

Experiments:
[1] = molecular target: T1, C. difficile full-length toxin TcdB (Clostridioides difficile, UniProt P18177); assay: cell-based
T1 construct: C. difficile full-length toxins (TcdA or TcdB); purchased EMD Millipore 616377

[2] = tested on: C. difficile strain VPI 10463; assay: Acute murine C. difficile infection model; assay type: in vivo, C57BL/6 mice; conditions: for weight loss, time course: acute infection, days after infection, 8 animals per group
Text: In a hospital environment, C. difficile infection occurs when the patient receives an antibiotic treatment that disrupts the normal gut microflora and is exposed to C. difficile spores. The patient often fails to mount a protective immune response against the acute C. difficile infection. (Rupnik, Wilcox et al. 2009). To study the acute C. difficile infection, we established a murine C. difficile infection model. Details of the infection model are provided in the “Experimental Protocol” (below).
In brief, female C57BL/6 mice were administered the following antibiotics: colistin (0.042 units/mL), gentamicin (0.035 mg/mL), kanamycin (0.4 mg/mL), metronidazole (0.215 mg/mL) and vancomycin (0.045 mg/mL) in drinking water for 3 days. The administered antibiotics disrupted the normal gut microflora in mice. On the 4th day, mice received oral administration of 0.5 mL volume containing ˜100 spores produced from a virulent clinical C. difficile isolate (strain VPI 10463). In this acute murine C. difficile infection model, we observed a similar time course of infection when compared to that of clinical patients.
Using the developed murine C. difficile infection model (Example 67), we evaluated our test compounds for their efficacy in reducing weight loss and gut inflammation caused by the acute C. difficile infection. We tested the efficacy of Example 6a and Example 5ae and used eight (8) animals in each group.
We further tested the efficacy of the Example 6a, Example 5ae, Example 4cl, and Example 5al compounds by PO administration. Vancomycin was used as a positive control. Three (3) experiments were performed utilizing a total of five (5) to sixteen (16) animals in each group.
C. difficile strain VPI 10463 was grown for four (4) days in 10 ml of BHI in a Bactron anaerobic workstation (Shel Lab). The culture was centrifuged at 2,700 g for 10 minutes. The bacterial pellet was washed with 10 mL of PBS and the centrifugation was repeated. The pellet was then re-suspended in 10 mL of PBS, incubated at 56° C. for 10 minutes, and then was frozen at −20° C. until used. Titers of spore stocks were determined by serial dilution and plating onto BHI and with 1% taurocholate and counting of colonies after incubation for 24 hours at 37° C. using the GasPak EZ Anaerobe Pouch System.
We utilized an established C. difficile murine infection model (Chen, Katchar et al. 2008). To render them susceptible to infection, female C57BL/6 mice (˜10 weeks old and weighing ˜20 g) were administered the following antibiotics (Sigma Aldrich) in drinking water for 3 days (Days −6 to −3): colistin (0.042 units/mL), gentamicin (0.035 mg/mL), kanamycin (0.4 mg/mL), metronidazole (0.215 mg/mL) and vancomycin (0.045 mg/mL). Based upon an expected water consumption of 100 mL/kg/day, the approximate doses of these antibiotics will be as follows: colistin (4.2 units/kg/day), gentamicin (3.5 mg/kg/day), kanamycin (40 mg/kg/day), metronidazole (21.5 mg/kg/day) and vancomycin (4.5 mg/kg/day). The animals were provided with regular drinking water for two days (Day −2 and Day −1), and the next day (Day 0) they were administered clindamycin phosphate (1 mg/mL solution in PBS) at 10 mL/kg by intraperitoneal injection, for a final dose of 10 mg/kg body weight. The following day (Day 1), they were orally gavaged with ˜100 spores in a 0.5 ml volume.
Compounds were administered beginning ˜8 hours after infection, and the animals were dosed twice per day for two days (Days 2-3) with a total of four doses. Compounds were prepared as 5 mg/mL suspensions in 20% PEG-400, 0.4% carboxymethyl cellulose and 0.2% Tween 80 and administered at a dose of 10 mL/kg, for a final dose of 50 mg/kg body weight.
Animals were observed and weighed two (2) to (3) times daily. Animals that were obviously moribund or had lost >20% of their initial body weight were euthanized. Sub-groups of animals were euthanized four (4) hours after the final compound dose (52 hours after infection). […]

C. difficile = assay type: in vivo, C57/BL6 mice; conditions: relapse model; for weight loss, days 8-9 after infection: PO, vancomycin 20 mg/kg once per day for five days
[3] = molecular target: T2, recombinant glucosyltransferase domain of C. difficile Toxin B/TcdB (Clostridioides difficile, UniProt P18177); assay: biochemical
T2 construct: 6-His (C); purchased R&D Systems 6246-GT
T2 sequence (P18177 1-543): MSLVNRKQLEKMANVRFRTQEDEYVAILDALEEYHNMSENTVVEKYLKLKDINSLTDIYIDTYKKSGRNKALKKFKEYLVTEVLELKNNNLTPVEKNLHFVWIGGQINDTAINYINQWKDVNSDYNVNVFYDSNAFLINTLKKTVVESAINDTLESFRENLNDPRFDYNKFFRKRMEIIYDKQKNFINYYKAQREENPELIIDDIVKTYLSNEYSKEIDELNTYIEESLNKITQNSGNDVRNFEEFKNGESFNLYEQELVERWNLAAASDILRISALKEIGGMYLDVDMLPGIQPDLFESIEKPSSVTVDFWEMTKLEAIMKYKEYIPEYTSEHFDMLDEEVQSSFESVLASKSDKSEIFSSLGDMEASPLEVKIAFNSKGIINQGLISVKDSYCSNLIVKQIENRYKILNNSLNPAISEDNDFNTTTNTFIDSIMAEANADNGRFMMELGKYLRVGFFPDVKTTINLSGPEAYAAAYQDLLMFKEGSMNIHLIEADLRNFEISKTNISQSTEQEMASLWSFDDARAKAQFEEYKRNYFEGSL

[4] = molecular target: T3, C. difficile full-length toxin TcdA (Clostridioides difficile, UniProt P16154); assay: cell-based
T3 construct: C. difficile full-length toxins (TcdA or TcdB); purchased Enzo Life Sciences BML-G140-0050
T3 sequence (P16154 whole entry, looked up): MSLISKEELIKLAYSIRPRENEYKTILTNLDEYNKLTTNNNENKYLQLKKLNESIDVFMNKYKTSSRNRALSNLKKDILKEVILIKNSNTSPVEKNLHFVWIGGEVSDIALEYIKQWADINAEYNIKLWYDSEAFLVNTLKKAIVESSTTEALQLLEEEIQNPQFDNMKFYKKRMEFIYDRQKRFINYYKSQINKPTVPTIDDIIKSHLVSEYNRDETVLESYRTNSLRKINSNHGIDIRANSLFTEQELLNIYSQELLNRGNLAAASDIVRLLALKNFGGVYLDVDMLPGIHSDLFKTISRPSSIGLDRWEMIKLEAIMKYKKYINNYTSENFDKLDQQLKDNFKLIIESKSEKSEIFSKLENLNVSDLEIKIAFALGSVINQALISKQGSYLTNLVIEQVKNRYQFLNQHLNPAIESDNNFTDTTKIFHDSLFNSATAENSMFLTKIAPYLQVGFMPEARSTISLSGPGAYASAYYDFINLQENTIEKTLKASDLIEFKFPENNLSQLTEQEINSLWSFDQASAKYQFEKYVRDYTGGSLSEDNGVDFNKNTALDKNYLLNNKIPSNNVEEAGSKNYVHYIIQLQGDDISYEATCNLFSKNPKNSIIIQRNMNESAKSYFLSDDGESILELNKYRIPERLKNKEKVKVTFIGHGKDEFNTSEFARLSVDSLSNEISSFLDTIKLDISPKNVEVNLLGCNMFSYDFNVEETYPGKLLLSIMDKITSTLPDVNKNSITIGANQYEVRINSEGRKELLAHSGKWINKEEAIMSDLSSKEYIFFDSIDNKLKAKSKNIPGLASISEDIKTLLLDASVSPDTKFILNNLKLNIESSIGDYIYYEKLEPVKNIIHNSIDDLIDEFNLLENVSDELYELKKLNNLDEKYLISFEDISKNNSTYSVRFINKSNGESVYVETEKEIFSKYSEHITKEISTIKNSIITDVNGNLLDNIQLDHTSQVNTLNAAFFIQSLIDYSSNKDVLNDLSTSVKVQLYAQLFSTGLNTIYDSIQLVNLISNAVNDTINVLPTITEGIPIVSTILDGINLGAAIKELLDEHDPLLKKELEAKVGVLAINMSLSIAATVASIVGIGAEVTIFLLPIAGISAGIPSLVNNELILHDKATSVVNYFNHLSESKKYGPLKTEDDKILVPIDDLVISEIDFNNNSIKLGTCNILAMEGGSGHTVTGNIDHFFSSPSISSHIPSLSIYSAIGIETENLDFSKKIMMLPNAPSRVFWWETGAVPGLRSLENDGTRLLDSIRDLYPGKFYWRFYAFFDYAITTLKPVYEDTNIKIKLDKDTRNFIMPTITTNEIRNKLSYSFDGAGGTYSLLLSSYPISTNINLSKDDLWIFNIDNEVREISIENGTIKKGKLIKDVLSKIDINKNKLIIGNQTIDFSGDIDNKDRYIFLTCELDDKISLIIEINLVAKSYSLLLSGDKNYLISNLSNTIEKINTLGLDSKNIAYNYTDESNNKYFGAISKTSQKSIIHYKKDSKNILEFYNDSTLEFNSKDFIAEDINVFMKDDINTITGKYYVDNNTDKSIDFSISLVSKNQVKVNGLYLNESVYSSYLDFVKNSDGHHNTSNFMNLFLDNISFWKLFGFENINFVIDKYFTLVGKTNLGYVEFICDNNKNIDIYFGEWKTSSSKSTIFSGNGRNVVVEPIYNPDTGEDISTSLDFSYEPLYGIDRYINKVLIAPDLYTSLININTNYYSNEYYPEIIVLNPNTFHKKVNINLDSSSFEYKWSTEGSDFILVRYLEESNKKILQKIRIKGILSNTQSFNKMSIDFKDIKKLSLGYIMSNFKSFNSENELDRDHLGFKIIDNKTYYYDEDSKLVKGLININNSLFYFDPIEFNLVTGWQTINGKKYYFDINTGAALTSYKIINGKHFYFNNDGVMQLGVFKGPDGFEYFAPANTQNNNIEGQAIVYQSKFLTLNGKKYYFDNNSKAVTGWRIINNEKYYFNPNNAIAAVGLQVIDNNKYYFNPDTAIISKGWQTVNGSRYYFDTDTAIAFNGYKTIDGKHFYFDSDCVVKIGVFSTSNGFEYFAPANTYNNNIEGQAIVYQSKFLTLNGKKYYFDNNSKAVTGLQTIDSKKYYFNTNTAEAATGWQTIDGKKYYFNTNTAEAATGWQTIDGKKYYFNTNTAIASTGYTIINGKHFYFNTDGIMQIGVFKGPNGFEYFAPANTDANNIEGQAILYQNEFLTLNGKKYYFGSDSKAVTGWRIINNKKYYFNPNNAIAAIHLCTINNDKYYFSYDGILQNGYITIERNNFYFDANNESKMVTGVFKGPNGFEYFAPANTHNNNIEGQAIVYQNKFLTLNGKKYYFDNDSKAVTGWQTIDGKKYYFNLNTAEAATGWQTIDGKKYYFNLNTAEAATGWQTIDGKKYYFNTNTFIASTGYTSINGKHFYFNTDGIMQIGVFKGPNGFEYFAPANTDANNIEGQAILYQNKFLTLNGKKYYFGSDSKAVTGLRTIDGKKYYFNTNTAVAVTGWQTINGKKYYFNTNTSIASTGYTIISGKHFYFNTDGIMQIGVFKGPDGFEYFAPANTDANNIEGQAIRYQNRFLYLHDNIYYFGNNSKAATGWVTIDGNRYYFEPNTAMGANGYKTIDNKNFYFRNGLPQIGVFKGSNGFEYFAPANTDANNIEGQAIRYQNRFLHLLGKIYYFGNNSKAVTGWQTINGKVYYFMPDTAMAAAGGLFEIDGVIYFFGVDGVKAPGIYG

How did the IC50 [1] turn out when `O=C(Nc1ccc(C(F)(F)F)cn1)c1ccc(CN2C(=O)c3ccc(Cl)cc3NC(=O)[C@H]2Cc2ccccn2)cc1Cl` [Example 5ae, (R)-2-Chloro-4-((8-chloro-2,5-dioxo-3-(pyridin-2-ylmethyl)-2,3-dihydro-1H-benzo[e][1,4]diazepin-4(5H)-yl)methyl)-N-(5-(trifluoromethyl)pyridin-2-yl)benzamide] was run?
The IC50 was 100 to 999 nM.

And the “toxin effect on colon length” value ([2]; PO, 52 hours after infection)?
Its value is “significantly reduced the toxin effect on colon length”.

And the “weight loss, time course” value [2]?
Its value is “significantly reduced weight loss 2.5 and 3.0 days after infection”.

And the “mice that died/expired on Days 8-9” value (C. difficile; 8 mice per group)?
Its value is “none”.

What about the relapsing disease (C. difficile; 8 mice per group) of the same molecule?
The relapsing disease was “prevention of relapsing disease”.

And the “mice euthanized due to body weight loss of >20%” value (C. difficile; Day 4, 8 mice per group)?
The value was 1.

And the “weight loss, days 8-9 after infection” value (C. difficile)?
The value was “significantly reduced weight loss 8.0, 8.5 and 9.0 days after infection”.

What about the IC50 [3] of the same molecule?
Its IC50 is less than 100 nM.

And the IC50 [4]?
Its IC50 is 1000 to 10000 nM.

How did the IC50 [1] turn out when `COc1ccc(NC(=O)c2ccc(CN3C(=O)c4ccc(Cl)cc4NC(=O)[C@H]3Cc3ccccn3)cc2F)nc1` [Example 6a, (R)-4-((8-Chloro-2,5-dioxo-3-(pyridin-2-ylmethyl)-2,3-dihydro-1H-benzo[e][1,4]diazepin-4(5H)-yl)methyl)-2-fluoro-N-(5-methoxypyridin-2-yl)benzamide] was run?
The IC50 was less than 100 nM.

What about the “weight loss, time course” value [2] of the same molecule?
Its value is “significantly reduced weight loss 2.25, 2.5 and 3.0 days after infection”.

And the “mice that died/expired on Days 8-9” value (C. difficile; 8 mice per group)?
Its value is “none”.

What about the relapsing disease (C. difficile; 8 mice per group) of the same molecule?
The relapsing disease was “prevention of relapsing disease”.

And the “weight loss, days 8-9 after infection” value (C. difficile)?
Its value is “significantly reduced weight loss 8.0, 8.5 and 9.0 days after infection”.

And the IC50 [3]?
The IC50 was less than 100 nM.

And the IC50 [4]?
Its IC50 is 100 to 999 nM.
